From ChEMBL document CHEMBL1145730, “Nodulisporic acid side-chain modifications: access to the 2", 3", 4", and 6" registers” (Bioorg Med Chem Lett, 2003)

Tested on: Pulicinae
Assay: In vitro flea activity using a membrane feeding assay wherein adult fleas ingest drug-treated bovine blood
Format: functional

SMILES | Activity [p.p.m.]
C=C(C)[C@H]1C(=O)c2c3c(cc4c5c(n1c24)[C@@]1(C)C(CC[C@H]2[C@](C)(C/C=C/C(=O)OC)[C@@H](O)CC[C@@]21C)C5)C1=CC(C)(C)OC(C)(C)C1[C@@H]3O (stereo not given in full) | 10
C=C(C)[C@H]1C(=O)c2c3c(cc4c5c(n1c24)[C@@]1(C)C(CC[C@H]2[C@](C)(/C=C/CC(=O)Nc4ccccc4)[C@@H](O)CC[C@@]21C)C5)C1=CC(C)(C)OC(C)(C)C1[C@@H]3O (stereo not given in full) | 1
C=C(C)[C@H]1C(=O)c2c3c(cc4c5c(n1c24)[C@@]1(C)C(CC[C@H]2[C@](C)(/C=C/CC(=O)N4CCOCC4)[C@@H](O)CC[C@@]21C)C5)C1=CC(C)(C)OC(C)(C)C1[C@@H]3O (stereo not given in full) | 1
C=C(C)[C@H]1C(=O)c2c3c(cc4c5c(n1c24)[C@@]1(C)C(CC[C@H]2[C@](C)(C/C=C/C(=O)N(C)C)[C@@H](O)CC[C@@]21C)C5)C1=CC(C)(C)OC(C)(C)C1[C@@H]3O (stereo not given in full) | 10
C=C(C)[C@H]1C(=O)c2c3c(cc4c5c(n1c24)[C@@]1(C)C(CC[C@H]2[C@](C)(/C=C/CC=O)[C@@H](O)CC[C@@]21C)C5)C1=CC(C)(C)OC(C)(C)C1[C@@H]3O (stereo not given in full) | 10
C=CCN(C)C(=O)/C=C/[C@]1(C)[C@@H](O)CC[C@@]2(C)[C@H]1CCC1Cc3c(n4c5c(c6c(cc35)C3=CC(C)(C)OC(C)(C)C3[C@@H]6O)C(=O)[C@@H]4C(=C)C)[C@@]12C (stereo not given in full) | > 10
C=C(C)[C@H]1C(=O)c2c3c(cc4c5c(n1c24)[C@@]1(C)C(CC[C@H]2[C@](C)(/C=C/C(=O)NCc4ccccc4)[C@@H](O)CC[C@@]21C)C5)C1=CC(C)(C)OC(C)(C)C1[C@@H]3O (stereo not given in full) | 10
C=C(C)[C@H]1C(=O)c2c3c(cc4c5c(n1c24)[C@@]1(C)C(CC[C@H]2[C@](C)(/C=C/C(=O)NC(C)(C)c4ccccn4)[C@@H](O)CC[C@@]21C)C5)C1=CC(C)(C)OC(C)(C)C1[C@@H]3O (stereo not given in full) | 1
C=C(C)[C@H]1C(=O)c2c3c(cc4c5c(n1c24)[C@@]1(C)C(CC[C@H]2[C@](C)(/C=C/CC(C)=O)[C@@H](O)CC[C@@]21C)C5)C1=CC(C)(C)OC(C)(C)C1[C@@H]3O (stereo not given in full) | 1
C=C(C)[C@H]1C(=O)c2c3c(cc4c5c(n1c24)[C@@]1(C)C(CC[C@H]2[C@](C)(/C=C/CC(=O)NCC)[C@@H](O)CC[C@@]21C)C5)C1=CC(C)(C)OC(C)(C)C1[C@@H]3O (stereo not given in full) | 10
C=C(C)[C@H]1C(=O)c2c3c(cc4c5c(n1c24)[C@@]1(C)C(CC[C@H]2[C@](C)(C/C=C/C(=O)NCC)[C@@H](O)CC[C@@]21C)C5)C1=CC(C)(C)OC(C)(C)C1[C@@H]3O (stereo not given in full) | 10
C=C(C)[C@H]1C(=O)c2c3c(cc4c5c(n1c24)[C@@]1(C)C(CC[C@H]2[C@](C)(/C=C/C(=O)N(C)C)[C@@H](O)CC[C@@]21C)C5)C1=CC(C)(C)OC(C)(C)C1[C@@H]3O (stereo not given in full) | > 10
C=C(C)[C@H]1C(=O)c2c3c(cc4c5c(n1c24)[C@@]1(C)C(CC[C@H]2[C@](C)(C/C=C/C(=O)NC4CC4)[C@@H](O)CC[C@@]21C)C5)C1=CC(C)(C)OC(C)(C)C1[C@@H]3O (stereo not given in full) | > 10
C=C(C)[C@H]1C(=O)c2c3c(cc4c5c(n1c24)[C@@]1(C)C(CC[C@H]2[C@](C)(/C=C/CC(=O)NCc4ccccc4)[C@@H](O)CC[C@@]21C)C5)C1=CC(C)(C)OC(C)(C)C1[C@@H]3O (stereo not given in full) | 10
C=C(C)[C@H]1C(=O)c2c3c(cc4c5c(n1c24)[C@@]1(C)C(CC[C@H]2[C@](C)(/C=C/CC(=O)N(C)CCC)[C@@H](O)CC[C@@]21C)C5)C1=CC(C)(C)OC(C)(C)C1[C@@H]3O (stereo not given in full) | 1
C=C(C)[C@H]1C(=O)c2c3c(cc4c5c(n1c24)[C@@]1(C)C(CC[C@H]2[C@](C)(/C=C/C(=O)N4CCN(c6ccccn6)CC4)[C@@H](O)CC[C@@]21C)C5)C1=CC(C)(C)OC(C)(C)C1[C@@H]3O (stereo not given in full) | 1
C=C(C)[C@H]1C(=O)c2c3c(cc4c5c(n1c24)[C@@]1(C)C(CC[C@H]2[C@](C)(/C=C/C(=O)NC)[C@@H](O)CC[C@@]21C)C5)C1=CC(C)(C)OC(C)(C)C1[C@@H]3O (stereo not given in full) | 10
C=C(C)[C@H]1C(=O)c2c3c(cc4c5c(n1c24)[C@@]1(C)C(CC[C@H]2[C@](C)(C/C=C/C(C)=O)[C@@H](O)CC[C@@]21C)C5)C1=CC(C)(C)OC(C)(C)C1[C@@H]3O (stereo not given in full) | 10
C=C(C)[C@H]1C(=O)c2c3c(cc4c5c(n1c24)[C@@]1(C)C(CC[C@H]2[C@](C)(/C=C/CC(=O)OC)[C@@H](O)CC[C@@]21C)C5)C1=CC(C)(C)OC(C)(C)C1[C@@H]3O (stereo not given in full) | 1
C=C(C)[C@H]1C(=O)c2c3c(cc4c5c(n1c24)[C@@]1(C)C(CC[C@H]2[C@](C)(/C=C/CC(=O)NCc4ccco4)[C@@H](O)CC[C@@]21C)C5)C1=CC(C)(C)OC(C)(C)C1[C@@H]3O (stereo not given in full) | 10
C=C(C)[C@H]1C(=O)c2c3c(cc4c5c(n1c24)[C@@]1(C)C(CC[C@H]2[C@](C)(/C=C/CC(=O)NC4CC4)[C@@H](O)CC[C@@]21C)C5)C1=CC(C)(C)OC(C)(C)C1[C@@H]3O (stereo not given in full) | 1
C=C(C)[C@H]1C(=O)c2c3c(cc4c5c(n1c24)[C@@]1(C)C(CC[C@H]2[C@](C)(/C=C/C(=O)NCCC)[C@@H](O)CC[C@@]21C)C5)C1=CC(C)(C)OC(C)(C)C1[C@@H]3O (stereo not given in full) | > 10
C=C(C)[C@H]1C(=O)c2c3c(cc4c5c(n1c24)[C@@]1(C)C(CC[C@H]2[C@](C)(/C=C/CC(=O)N(C)C)[C@@H](O)CC[C@@]21C)C5)C1=CC(C)(C)OC(C)(C)C1[C@@H]3O (stereo not given in full) | 10
C=C(C)[C@H]1C(=O)c2c3c(cc4c5c(n1c24)[C@@]1(C)C(CC[C@H]2[C@](C)(/C=C/C=C(\C)C(=O)O)[C@@H](O)CC[C@@]21C)C5)C1=CC(C)(C)OC(C)(C)C1[C@@H]3O (stereo not given in full) | 1
C=C(C)[C@H]1C(=O)c2c3c(cc4c5c(n1c24)[C@@]1(C)C(CC[C@H]2[C@](C)(/C=C/CC(=O)NC(C)(C)C)[C@@H](O)CC[C@@]21C)C5)C1=CC(C)(C)OC(C)(C)C1[C@@H]3O (stereo not given in full) | 1
